Experimental data published in patent US10413505B1, “Pharmaceutical compositions and methods of using the same” (priority 2017, dated 2019).
Like-named read-outs stand apart in the source and are kept apart here.

Tests used:
[1] = Example 2 urinary pharmacokinetics, normal renal function vs severe renal impairment; details: for CL renal: human, 160 mg; for 0 to 32 hour urinary recovery (geometric mean) / 0 to 32 hour urinary recovery (mean) / 0 to 32 hour urinary recovery (median): metabolites as cocaine equivalents
Experimental: For the urine analysis of cocaine, BE, and EME, individual urinary recoveries for each analyte were determined over each collection interval as the product of the urine concentration times the urine volume. The total recoveries were determined as the sum of the recoveries over all the intervals. Total urinary recoveries were also expressed as the percentage of the administered dose, after correction for the molecular weight of each analyte. The renal clearances of cocaine, BE, and EME were determined as the urinary recovery (in μg) divided by the plasma AUC over the same time interval (the longest period for which both plasma and urine measurements were available).
Urine was collected prior to dosing and from 0-2, 2-4, 4-8, 8-12, 12-24, and 24-32 hours after the beginning of dose application. […] Testing methods used were consistent with those used by inVentiv Health Clinical Lab, Inc., Miami, Fla., U.S.A. Urinary pharmacokinetic parameters included total urinary recovery (μg), urinary recovery as a percentage of dose, and CLr.

[2] = Example 1 single-dose plasma pharmacokinetics after intranasal administration; assay type: in vivo, human; details: single intranasal 160 mg cocaine HCl; for AUC(0-inf) / AUC(0-t) / Cmax / MRT / Tmax / Vd/F / half-life: human, inhaled or intranasal, 160 mg
Experimental: Single-dose plasma and urinary pharmacokinetics of the pharmaceutical composition following intranasal administration was characterized in this study. This was a single-dose study in 30 healthy volunteers. The objective of the study was to examine the systemic pharmacokinetics of the pharmaceutical composition following acute, topical intranasal administration.
(§1) A single dose of a pharmaceutical composition was administered to both nostrils using cottonoid pledgets. […] Each pledget absorbed approximately 1 mL of pharmaceutical composition (i.e., 40 mg cocaine hydrochloride). Two soaked pledgets were placed into each nasal cavity of the subject and against the anterior septum for 20 minutes; thus, a total dose of 160 mg of cocaine hydrochloride was administered.
Blood samples were collected pre-dose (30 minutes before pledget insertion), and 7.5, 15, 20, 30, 45, 60, 75, 90, and 105 minutes and 2, 3, 4, 6, 8, 10, and 12 hours from the start of application of the pharmaceutical composition.
The effect of gender on Cmax, Tmax, AUClast, AUCinf, and t1/2 was determined. The effects of age, body weight, and BMI on AUClast were determined.

[3] = Example 1 urinary pharmacokinetics after intranasal administration; assay type: in vivo, human; details: healthy subjects, single intranasal 160 mg cocaine HCl; for CL renal / dose excreted: human, urine, 160 mg; for CL renal: inhaled or intranasal; for dose excreted: other: intranasal
Experimental: as §1
Urine samples were collected pre-dose and at the following intervals from the start of intranasal application of the pharmaceutical composition: 0-2 hours, 2-4 hours, 4-8 hours, and 8-12 hours. […] A 25-μL aliquot of each urine sample was processed by liquid-liquid extraction.
Urinary pharmacokinetic parameters were analyzed using noncompartmental methods.

[4] = normal renal function, single intranasal 160 mg cocaine HCl
[5] = severe renal impairment, single intranasal 160 mg cocaine HCl
[6] = urine 0-12 h, metabolites as cocaine equivalents

Structure (SMILES): COC(=O)[C@H]1[C@@H](OC(=O)c2ccccc2)C[C@@H]2CC[C@H]1N2C [Cocaine, cocaine, reference compound]
- CL renal ([1]; both, urine, inhaled or intranasal, Renal Clearance, CLr (geometric mean), normal renal function, single intranasal 160 mg cocaine HCl): 26.8 mL/min
- CL renal ([1]; both, urine, inhaled or intranasal, Renal Clearance, CLr (geometric mean), severe renal impairment, single intranasal 160 mg cocaine HCl): 17.3 mL/min
- CL renal ([1]; both, urine, other: intranasal (drug-soaked pledgets in the nasal cavity), renal clearance, range observed, renally impaired patients, 32 hours from administration): 8.8 to 31.9 mL/min
- CL renal ([1]; urine and plasma, inhaled or intranasal, CLr (Geometric Least Squares Mean, ANOVA), Impaired renal function (severe), single intranasal 160 mg cocaine HCl): 17.3 mL/min
- CL renal ([1]; urine and plasma, inhaled or intranasal, CLr (Geometric Least Squares Mean, ANOVA), Normal renal function, single intranasal 160 mg cocaine HCl): 26.8 mL/min
- CL renal ([1]; urine and plasma, inhaled or intranasal, Renal Clearance (geometric mean), normal renal function, single intranasal 160 mg cocaine HCl): 26.9 mL/min
- CL renal ([1]; urine and plasma, inhaled or intranasal, Renal Clearance (geometric mean), severe renal impairment, single intranasal 160 mg cocaine HCl): 17.3 mL/min
- CL renal ([1]; urine and plasma, inhaled or intranasal, Renal Clearance (mean), normal renal function, single intranasal 160 mg cocaine HCl): 33.3 mL/min
- CL renal ([1]; urine and plasma, inhaled or intranasal, Renal Clearance (mean), severe renal impairment, single intranasal 160 mg cocaine HCl): 20.4 mL/min
- CL renal ([1]; urine and plasma, inhaled or intranasal, Renal Clearance (median), normal renal function, single intranasal 160 mg cocaine HCl): 33.6 mL/min
- CL renal ([1]; urine and plasma, inhaled or intranasal, Renal Clearance (median), severe renal impairment, single intranasal 160 mg cocaine HCl): 19.6 mL/min
- CL renal ([1]; urine and plasma, inhaled or intranasal, Renal Clearance, CLr (mean), normal renal function, single intranasal 160 mg cocaine HCl): 33.3 mL/min
- CL renal ([1]; urine and plasma, inhaled or intranasal, Renal Clearance, CLr (mean), severe renal impairment, single intranasal 160 mg cocaine HCl): 20.3 mL/min
- CL renal ([1]; urine and plasma, inhaled or intranasal, Renal Clearance, CLr (median), normal renal function, single intranasal 160 mg cocaine HCl): 33.7 mL/min
- CL renal ([1]; urine and plasma, inhaled or intranasal, Renal Clearance, CLr (median), severe renal impairment, single intranasal 160 mg cocaine HCl): 19.7 mL/min
- 0-32 h Urinary Recovery (geometric mean) [1, 4]: 122.8 µg
- 0-32 h Urinary Recovery (mean) [1, 4]: 164.2 µg
- 0-32 h Urinary Recovery (median) [1, 4]: 126.6 µg
- 0 to 32 hour urinary recovery (geometric mean) [1, 4]: 0.086 % of administered dose
- 0 to 32 hour urinary recovery (mean) [1, 4]: 0.115 % of administered dose
- 0 to 32 hour urinary recovery (median) [1, 4]: 0.089 % of administered dose
- CLr, percent lower (reduction) than in normal subjects ([1]; severe renal impairment vs normal renal function): approximately 36%
- CLr Ratio Impaired/Normal ([1]; severe renal impairment vs normal renal function, ANOVA): 64.33%
- 0-32 h Urinary Recovery (geometric mean) [1, 5]: 102.7 µg
- 0-32 h Urinary Recovery (mean) [1, 5]: 138.5 µg
- 0-32 h Urinary Recovery (median) [1, 5]: 89.8 µg
- 0 to 32 hour urinary recovery (geometric mean) [1, 5]: 0.072 % of administered dose
- 0 to 32 hour urinary recovery (mean) [1, 5]: 0.097 % of administered dose
- 0 to 32 hour urinary recovery (median) [1, 5]: 0.063 % of administered dose
- AUC(0-inf) ([2]; both sexes, plasma, healthy subjects, plasma, read-out: AUCinf (Geometric Mean)): 50.3 ng·h/mL
- AUC(0-inf) ([2]; both sexes, plasma, healthy subjects, plasma, read-out: AUCinf (Mean)): 54.9 ng·h/mL
- AUC(0-t) ([2]; both sexes, plasma, healthy subjects, plasma, read-out: AUClast (Geometric Mean)): 34.2 ng·h/mL
- AUC(0-t) ([2]; both sexes, plasma, healthy subjects, plasma, read-out: AUClast (Mean)): 38.4 ng·h/mL
- Cmax ([2]; both sexes, plasma, healthy subjects, plasma, read-out: Cmax (Geometric Mean)): 32.8 ng/mL
- MRT ([2]; both sexes, plasma, healthy subjects, plasma, read-out: MRT (Geometric Mean)): 90 min
- MRT ([2]; both sexes, plasma, healthy subjects, plasma, read-out: MRT (Mean)): 93.6 min
- Tmax ([2]; both sexes, plasma, healthy subjects, plasma, read-out: Tmax (Geometric Mean)): 22.4 min
- Vd/F ([2]; both sexes, plasma, healthy subjects, plasma, read-out: Vd/F (Geometric Mean)): 3680 L
- Vd/F ([2]; both sexes, plasma, healthy subjects, plasma, read-out: Vd/F (Mean)): 3880 L
- AUC(0-inf) ([2]; female, plasma, Female healthy subjects, plasma, read-out: AUCinf (Geometric mean)): 53.9 ng·h/mL
- AUC(0-inf) ([2]; female, plasma, Female healthy subjects, plasma, read-out: AUCinf (Mean)): 60.6 ng·h/mL
- AUC(0-inf) ([2]; female, plasma, Female healthy subjects, plasma, read-out: AUCinf (Median)): 57.6 ng·h/mL
- AUC(0-t) ([2]; female, plasma, Female healthy subjects, plasma, read-out: AUClast (Geometric mean)): 39.4 ng·h/mL
- AUC(0-t) ([2]; female, plasma, Female healthy subjects, plasma, read-out: AUClast (Mean)): 44.4 ng·h/mL
- AUC(0-t) ([2]; female, plasma, Female healthy subjects, plasma, read-out: AUClast (Median)): 32.4 ng·h/mL
- Cmax ([2]; female, plasma, Female healthy subjects, plasma, read-out: Cmax (Geometric mean)): 35.5 ng/mL
- Cmax ([2]; female, plasma, Female healthy subjects, plasma, read-out: Cmax (Mean)): 39 ng/mL
- Cmax ([2]; female, plasma, Female healthy subjects, plasma, read-out: Cmax (Median)): 37 ng/mL
- Tmax ([2]; female, plasma, Female healthy subjects, plasma, read-out: Tmax (Geometric mean)): 23.1 min
- Tmax ([2]; female, plasma, Female healthy subjects, plasma, read-out: Tmax (Mean)): 26.9 min
- Tmax ([2]; female, plasma, Female healthy subjects, plasma, read-out: Tmax (Median)): 20 min
- half-life ([2]; female, plasma, Female healthy subjects, plasma, read-out: t1/2 (Geometric mean) (converted)): 56.5 min
- half-life ([2]; female, plasma, Female healthy subjects, plasma, read-out: t1/2 (Mean) (converted)): 60.6 min
- half-life ([2]; female, plasma, Female healthy subjects, plasma, read-out: t1/2 (Median) (converted)): 60.6 min
- fraction of the 160 mg dose absorbed intact during the 20-minute exposure period (rough estimate, CL/F vs intravenous CL) ([2]; healthy subjects): ~4%
- % EXTRAP (Geometric Mean) ([2]; healthy subjects, plasma): 17.7%
- % EXTRAP (Mean) ([2]; healthy subjects, plasma): 18.7%
- CL/F (Mean) ([2]; healthy subjects, plasma): 3,096 L/h
- Clast (Geometric mean) ([2]; healthy subjects, plasma): 7.05 ng/mL
- Clast (Mean) ([2]; healthy subjects, plasma): 7.18 ng/mL
- Tlast (Geometric mean) ([2]; healthy subjects, plasma): 2.31 h
- Tlast (Mean) ([2]; healthy subjects, plasma): 2.40 h
- Tmax (Mean) ([2]; healthy subjects, plasma): 26 min
- t1/2 (Geometric mean) ([2]; healthy subjects, plasma): 58.5 min
- Cmax ([2]; plasma, healthy subjects, plasma, read-out: Cmax (Mean)): 37 ± 17.3 ng/mL
- Cmax ([2]; plasma, healthy subjects, plasma, read-out: Cmax (range across subjects)): 7.93 to 70.3 ng/mL
- Tmax ([2]; plasma, healthy subjects, plasma, read-out: Tmax (Mean)): 25.8 ± 20.4 min
- half-life ([2]; plasma, healthy subjects, plasma, read-out: t1/2 (Mean) (converted)): 62.4 ± 21 min
- AUC(0-inf) ([2]; male, plasma, Male healthy subjects, plasma, read-out: AUCinf (Geometric mean)): 45.7 ng·h/mL
- AUC(0-inf) ([2]; male, plasma, Male healthy subjects, plasma, read-out: AUCinf (Mean)): 47.2 ng·h/mL
- AUC(0-inf) ([2]; male, plasma, Male healthy subjects, plasma, read-out: AUCinf (Median)): 46.2 ng·h/mL
- AUC(0-t) ([2]; male, plasma, Male healthy subjects, plasma, read-out: AUClast (Geometric mean)): 29.1 ng·h/mL
- AUC(0-t) ([2]; male, plasma, Male healthy subjects, plasma, read-out: AUClast (Mean)): 31.5 ng·h/mL
- AUC(0-t) ([2]; male, plasma, Male healthy subjects, plasma, read-out: AUClast (Median)): 28.5 ng·h/mL
- Cmax ([2]; male, plasma, Male healthy subjects, plasma, read-out: Cmax (Geometric mean)): 30 ng/mL
- Cmax ([2]; male, plasma, Male healthy subjects, plasma, read-out: Cmax (Mean)): 34.6 ng/mL
- Cmax ([2]; male, plasma, Male healthy subjects, plasma, read-out: Cmax (Median)): 31.6 ng/mL
- Tmax ([2]; male, plasma, Male healthy subjects, plasma, read-out: Tmax (Geometric mean)): 21.7 min
- Tmax ([2]; male, plasma, Male healthy subjects, plasma, read-out: Tmax (Mean)): 25 min
- Tmax ([2]; male, plasma, Male healthy subjects, plasma, read-out: Tmax (Median)): 20 min
- half-life ([2]; male, plasma, Male healthy subjects, plasma, read-out: t1/2 (Geometric mean) (converted)): 60.6 min
- half-life ([2]; male, plasma, Male healthy subjects, plasma, read-out: t1/2 (Mean) (converted)): 63.6 min
- half-life ([2]; male, plasma, Male healthy subjects, plasma, read-out: t1/2 (Median) (converted)): 58 min
- Total Urinary Recovery (Geometric mean) [3, 6]: 96.5 µg
- Total Urinary Recovery (Mean) [3, 6]: 117 µg
- Total Urinary Recovery (Median) [3, 6]: 114 µg
- CL renal ([3]; read-out: Renal Clearance (Geometric mean) (converted)): 37.2 mL/min
- CL renal ([3]; read-out: Renal Clearance (Mean) (converted)): 47.2 mL/min
- CL renal ([3]; read-out: Renal Clearance (Median) (converted)): 42.7 mL/min
- dose excreted ([3]; urine 0-12 h, metabolites as cocaine equivalents, read-out: Urinary Recovery (Geometric mean)): 0.0603%
- dose excreted ([3]; urine 0-12 h, metabolites as cocaine equivalents, read-out: Urinary Recovery (Mean)): 0.0729%
- dose excreted ([3]; urine 0-12 h, metabolites as cocaine equivalents, read-out: Urinary Recovery (Median)): 0.0714%
